The source made the active and inactive calls. The rule behind the calls is not given here.
System: Staphylococcus aureus
Assay: Antibacterial activity against methicillin-resistant Staphylococcus aureus at 25 ug/mL
Assay type: functional, organism-based

For `C/C=C/C=C/C=C(C)/C=C/C(O)=C1\C(=O)CNC1=O`, which inhibition is on record?
The inhibition was “Active”.

From ChEMBL document CHEMBL1150646, “Ravenic acid, a new tetramic acid isolated from a cultured microfungus, Penicillium sp” (J Nat Prod, 2002)
